# Test results: US20240074473A1, “METHOD FOR INDUCING HYPERTROPHIC MUSCLE FIBERS FOR INDUSTRIAL MEAT PRODUCTION” (Yeda Research and Development Co. Ltd., priority 2021, published 2024)
# Like-named read-outs stand apart in the source and are kept apart here.
# Tests used:
# [1] = tested on: primary chicken myoblasts; test: Fusion index of primary chicken myoblasts (MyHC immunostaining); type: cell-based; conditions: primary chicken myoblasts; for Fusion index in combination with ERK inhibitor vs ERK inhibitor alone: proliferation media; for Fusion index in combination with ERK inhibitor vs ERK inhibitor alone / Fusion index: 48 hours; for Fusion index: proliferation medium; for Fusion: 48 hours post treatment
# Method: Chicken primary derived myoblasts were used as a model to evaluate the efficiency of SCH772984 as the ERKi, compared to conventional differentiation medium (DM) for the purpose of producing muscle (meat) in tissue culture conditions. Chicken myoblasts were isolated from chicken embryos and expanded in proliferation medium. When sufficient cell numbers were acquired, cells were seeded on tissue culture plates and allowed to adhere for 24 hours. Then medium was changed to either PM supplemented with ERKi or DM. At 24-hours post treatment, the cells that received ERKi were replenished with fresh PM (without the addition of more ERKi), and DM treated cells were replenished with fresh DM. Media was replaced daily over a period of 72 hours.
# Evaluation of muscle fiber formation was achieved by fixing the cells and staining for expression of Myosin Heavy Chain (FIG. 9A). […] Yet, treatment with conventional DM only began to form fibers beginning at 72-hours post treatment. A fusion index was quantified at 72 hours post treatment (FIG. 9B), in which the percentage of total nuclei present in a myotube (MyHC positive cell with 2 or more nuclei).
# Primary chicken myoblast isolation and treatment: chicken myoblasts were isolated from broiler chicken embryos at day 18 from breast and leg muscles by using Trypsin B. Following tissue dissociation, the cell suspension was grown for 3-4 days on 10% Matrigel coated plates. At the first passage, the cells were lifted and pre-plated twice for 30 minutes to enrich for myoblasts and reduce the number of fibroblasts. Then cells were seeded at 8,000/well of optical-96 well plates in proliferation medium. 24 hours after plating, media was aspirated and replaced with the indicated treatment conditions in proliferation media or differentiation media (as indicated). After 24 hours with treatment, the media was aspirated and all wells were replenished with fresh proliferation media or differentiation media without any treatment. This was repeated daily. Cells were fixed at 48 hours after treatment. Compounds were purchased from Cayman Chemicals.
# Immunofluorescent staining: Cells were fixed with ice cold 4% PFA in PBS for 10 minutes, permeabilized with 0.5% Triton X-100 in PBS for 6 minutes, and blocked in PBS with 0.025% tween, 10% normal horse serum and 10% normal goat serum for 1 hour at room temperature. Primary antibody incubation was done in blocking buffer overnight at 4 degrees, with the following antibodies: Myosin Heavy Chain (MyHC, MF20, DSHB hybridoma supernatant 1:10, alpha-actinin (SIGMA A7811). Cells were washed 3 times in PBS with 0.025% tween and then incubated with appropriate secondary antibodies in PBS 1 hour. Nuclei were labeled with DAPI (SIGMA D9542, 5 ug/ml). All fusion indexes and imaging analysis were performed on at least 1000 per technical repeat.
# [2] = Risk categorization of cell culture media ingredients
# Description: Category 1: These cell culture media components are food ingredients/additives that are GRAS or permitted by federal regulation without limitation on use. Exemplary compounds in this category include innocuous ingredients such as sugars, pH buffers, water soluble vitamins, and common antioxidants such as tocopherols.
# Category 2: These cell culture media components are common dietary nutrients and are anticipated to have GRAS status for food use or be permitted by regulation for addition to food. Examples of such compounds include most of the inorganic salts and macronutrients that are present within the cell culture media. […] Majority of nutrients present within the poultry cell-based meat may be readily measured using common validated methods for food composition testing. Batch analyses of multiple lots of the finished product may be obtained to validate the above assumptions. In some instances, consideration of established safe levels (e.g., ADI, UL) derived from a relevant authoritative body (e.g., U.S. FDA, EFSA, JECFA, FSANZ, U.S. EPA) may be leveraged to support safety. If comparisons of anticipated dietary intakes relative to an authoritative reference intake value is used, consideration of additive intakes from all dietary sources may be considered. In the absence of an authoritative reference intake value, published NOAELs from animal toxicology studies may be used to evaluate safety using standard scientific procedures for food safety evaluation. A margin of exposure (MoE) of 100-fold or greater between the NOAEL and estimated dietary intakes from food exposures is typically considered adequate to support safety. in situations where the MoE is <100-fold, additional measures for further reduction of the media component may be necessary, or further characterization of intraspecies/interspecies differences in metabolism may be necessary. These situations also require careful consideration of the regulatory status on a case-by basis (e.g., premarket approval as a food additive or GRAS evaluation required).
# For example, situations where the compound is not detectable in finished product or is present at equivalent levels in comparator foods, compounds that are thermo-labile and will be digested during cooking, and/or compounds that are expected to be digested to innocuous compounds following ingestion. Examples of compounds meeting the aforementioned conditions would include recombinant growth factors and serum components. For Category 3 substances a final consideration in the safety assessment process may involve hazard characterization of the potential for a substance to produce toxic biological effects outside of the endpoints measured in a sub-chronic rat toxicity study. Substances with biological activity may require additional hazard characterization related to reproductive and developmental toxicity, or immunotoxicity. Considerations for allergenicity, biological effects in humans (e.g., effects on blood pressure), and synergistic effects with other media components also may be evaluated. […] Examples of category 3 components include recombinant proteins and animal serum.
# [3] = Maximum estimated dietary exposure to media ingredients per 100 g serving; conditions: assumption of complete transfer of media components to the finished product on a wt/wt basis
# [4] = human dietary intake, as iron; cited from earlier work
# [5] = SCH772984 1 uM plus 9-cis RA 200 nM, AM80 200 nM, AM580 100 nM, CH55 200 nM, TTNPB 200 nM, Fenretinide 200 nM
# [6] = cell culture media ingredient used during meat production
# [7] = SCH772984 1 uM plus Caffeine 2 mM or Suramin 10 μM
molecule,measurement,setting,value
CC1(C)CCC(C)(C)c2cc(C(=O)Nc3ccc(C(=O)O)cc3)ccc21 [AM580],Fusion index in combination with ERK inhibitor vs ERK inhibitor alone,[1]; [5],significantly increased the fusion index
O=C[C@H](O)[C@@H](O)[C@H](O)[C@H](O)CO [D-GLUCOSE],Risk Assessment Category,[2],1
Cl.N[C@@H](Cc1cnc[nH]1)C(=O)O.O [L-HISTIDINE-HCL-H20],Risk Assessment Category,[2]; [6],2
O.O=P([O-])(O)O.[Na+] [SODIUM PHOSPHATE MONOBASIC H20],Risk Assessment Category,[2]; [6],1
same,Maximum Estimated Exposure per 100 g serving,[3],1500 mg
BOVINE SERUM ALBUMIN: animal component of cell culture media,Risk Assessment Category,[2],3
Nc1nc2ncc(CNc3ccc(C(=O)N[C@@H](CCC(=O)O)C(=O)O)cc3)nc2c(=O)[nH]1 [FOLIC ACID],Risk Assessment Category,[2],1
same,Maximum Estimated Exposure per 100 g serving,[3],60 mg
CC(C)(C)c1cc(C(=O)/C=C/c2ccc(C(=O)O)cc2)cc(C(C)(C)C)c1 [CH55],Fusion index in combination with ERK inhibitor vs ERK inhibitor alone,[1]; [5],significantly increased the fusion index
Cc1ncc(CO)c(C=O)c1O.Cl [PYRIDOXAL-HCL],Risk Assessment Category,[2],1
O.O.O.O.O.O.O.O.O.O=[Si]([O-])[O-].[Na+].[Na+] [SODIUM METASILICATE-9H2O],Risk Assessment Category,[2],1
same,Maximum Estimated Exposure per 100 g serving,[3],1.6 mg
Cl.NCCCC[C@H](N)C(=O)O [L-LYSINE-HCL],Risk Assessment Category,[2]; [6],2
CC1=C(/C=C/C(C)=C/C=C/C(C)=C/C(=O)Nc2ccc(O)cc2)C(C)(C)CCC1 [Fenretinide],Fusion index in combination with ERK inhibitor vs ERK inhibitor alone,[1]; [5],significantly increased the fusion index
CC1=C(/C=C/C(C)=C\C=C\C(C)=C\C(=O)O)C(C)(C)CCC1 [9-cis retinoic acid],Fusion index in combination with ERK inhibitor vs ERK inhibitor alone,[1]; [5],significantly increased the fusion index
CCOC(=O)CCCCCCCCCCCN(C)C(=O)CO[C@H](C)[C@@H](C)OCC(=O)N(C)CCCCCCCCCCCC(=O)OCC [calcium ionophore I],Fusion index,[1]; ionophore 2 uM plus ERKi 1 uM,89%
CC[C@H](C)[C@H](N)C(=O)O [L-ISOLEUCINE],Risk Assessment Category,[2],2
Cc1ccc(C(=O)Nc2ccc(S(=O)(=O)O)c3cc(S(=O)(=O)O)cc(S(=O)(=O)O)c23)cc1NC(=O)c1cccc(NC(=O)Nc2cccc(C(=O)Nc3cc(C(=O)Nc4ccc(S(=O)(=O)O)c5cc(S(=O)(=O)O)cc(S(=O)(=O)O)c45)ccc3C)c2)c1 [Suramin],Fusion index in combination with ERK inhibitor vs ERK inhibitor alone,[1]; [7],significantly increased the fusion index
O[C@H]1[C@H](O)[C@@H](O)[C@H](O)[C@@H](O)[C@H]1O [MYO-INOSITOL],Risk Assessment Category,[2],1
same,Maximum Estimated Exposure per 100 g serving,[3],430 mg
N#CC(=C(/N)Sc1ccccc1N)/C(C#N)=C(\N)Sc1ccccc1N [U0126],Fusion,"[1]; Differentiation media, 1 uM",29%
same,Fusion,"[1]; Differentiation media, 10 uM",47%
same,Fusion,"[1]; Proliferation media, 1 uM",16%
same,Fusion,"[1]; Proliferation media, 10 uM",7%
CC1(C)CCC(C)(C)c2cc(NC(=O)c3ccc(C(=O)O)cc3)ccc21 [AM80],Fusion index in combination with ERK inhibitor vs ERK inhibitor alone,[1]; [5],significantly increased the fusion index
CSCC[C@H](N)C(=O)O [L-METHIONINE],Risk Assessment Category,[2],2
C/C(=C\c1ccc(C(=O)O)cc1)c1ccc2c(c1)C(C)(C)CCC2(C)C [TTNPB],Fusion index in combination with ERK inhibitor vs ERK inhibitor alone,[1]; [5],significantly increased the fusion index
Cn1c(=O)c2c(ncn2C)n(C)c1=O [Caffeine],Fusion index in combination with ERK inhibitor vs ERK inhibitor alone,[1]; [7],significantly increased the fusion index
C[C@H](N)C(=O)O [L-ALANINE],Risk Assessment Category,[2],2
NC(=O)C[C@H](N)C(=O)O.O [L-ASPARAGINE-H20],Risk Assessment Category,[2],2
O=C(O)CCCC[C@@H]1SC[C@@H]2NC(=O)N[C@@H]21 [D-BIOTIN],Risk Assessment Category,[2],1
same,Maximum Estimated Exposure per 100 g serving,[3],4 mg
O=C1O[C@H]([C@@H](O)CO)C(O)=C1O [ASCORBIC ACID],Risk Assessment Category,[2],1
same,Maximum Estimated Exposure per 100 g serving,[3],2000 mg
FERRIC CITRATE,Safe Reference Level for Human Dietary Intake: Iron UL,[4],Iron UL = 40 to 45 mg
C[C@@H](O)[C@H](N)C(=O)O [L-THREONINE],Risk Assessment Category,[2],2
N[C@@H](CO)C(=O)O [L-SERINE],Risk Assessment Category,[2],2
CC(C)[C@H](N)C(=O)O [L-VALINE],Risk Assessment Category,[2],2
CNc1ccc2oc(C[C@H]3O[C@@]4(CC[C@H]3C)O[C@H]([C@H](C)C(=O)c3ccc[nH]3)[C@H](C)C[C@H]4C)nc2c1C(=O)O [calcimycin],Fusion index,[1]; ionophore 1 uM plus ERKi 1 uM,94%
Cc1ncc(CO)c(CO)c1O.Cl [PYRIDOXINE-HCL],Risk Assessment Category,[2]; [6],1
same,Maximum Estimated Exposure per 100 g serving,[3],25 mg
C[N+](C)(C)CCO.[Cl-] [CHOLINE CHLORIDE],Risk Assessment Category,[2],1
same,Maximum Estimated Exposure per 100 g serving,[3],52 mg
C[C@H](CCC(=O)O)C[C@H](C)C[C@H](C)C(=O)/C=C(\O)[C@H](C)C[C@H](C)C/C=C/[C@@H](C)[C@@H](O)[C@@H](C)[C@@H](O)C[C@@H]1CC[C@@](C)([C@H]2CC[C@@](C)([C@@H](C)O)O2)O1 [ionomycin],Fusion index,[1]; ionophore 2 uM plus ERKi 1 uM,89%
N[C@@H](Cc1ccccc1)C(=O)O [L-PHENYLALANINE],Risk Assessment Category,[2]; [6],2
N[C@@H](Cc1ccc([O-])cc1)C(=O)[O-].O.O.[Na+].[Na+] [L-TYROSINE-2NA-2H20],Risk Assessment Category,[2]; [6],2
N[C@@H](Cc1c[nH]c2ccccc12)C(=O)O [L-TRYPTOPHAN],Risk Assessment Category,[2],2
N[C@@H](CCC(=O)N[C@@H](CS)C(=O)NCC(=O)O)C(=O)O [L-GLUTATHIONE],Risk Assessment Category,[2],2
same,Maximum Estimated Exposure per 100 g serving,[3],36 mg
IGF-1 (INSULIN-LIKE GROWTH FACTOR 1): growth factor of cell culture media,Risk Assessment Category,[2],3
Cl.N[C@@H](CS)C(=O)O.O [L-CYSTEINE HCL H20],Risk Assessment Category,[2]; [6],2
Cl.Cl.N[C@@H](CSSC[C@H](N)C(=O)O)C(=O)O [L-CYSTINE 2HCL],Risk Assessment Category,[2],2
PDGF-BB (PLATELET DERIVED GROWTH FACTOR-BB): growth factor of cell culture media,Risk Assessment Category,[2],3
FGF2 (FIBROBLAST GROWTH FACTOR-BASIC): growth factor of cell culture media,Risk Assessment Category,[2],3
